Data set [1] addresses Nicotinamide phosphoribosyltransferase (Homo sapiens, UniProt P43490). As to the kind of experiment: Inhibition of human NAMPT using NAM as substrate assessed as NMN formation preincubated for 5 mins followed by substrate addition measured after 15 mins by fluorometric assay.
Data set [2] in a line: Metabolic stability in mouse liver microsomes assessed as parent compound remaining at 5 uM measured at 30 mins in presence of NADPH. The class given is ADME. Conditions: read-out: Stability. On the technique in general: Microsomes from liver hold many membrane-bound enzymes, among them those of drug oxidation.
Data set [3] is described as follows: Plasma protein binding in human. The class given is ADME, cell-free. Conditions: read-out: PPB (converted).
A short description of data set [4]: Metabolic stability in human liver microsomes assessed as parent compound remaining at 5 uM measured at 30 mins in presence of NADPH. The class given is ADME. Conditions: read-out: Stability.
The next data set addresses CYP2D6 (Homo sapiens, UniProt P10635). Nature of the data set: Inhibition of CYP2D6 (unknown origin) at 3 uM relative to control. In kind it is ADME.
A short description of data set [5]: Metabolic stability in human liver microsomes assessed as parent compound remaining at 5 uM measured at 30 mins in absence of NADPH. In kind it is ADME. Conditions: read-out: Stability.
Another data set concerns the target CYP2C9 (Homo sapiens, UniProt P11712). As to the kind of experiment: Inhibition of CYP2C9 (unknown origin) at 3 uM relative to control. In kind it is ADME.
For the next data set, the target named is T1, CYP1A2 (Homo sapiens, UniProt P05177).
T1 sequence (P05177 whole entry): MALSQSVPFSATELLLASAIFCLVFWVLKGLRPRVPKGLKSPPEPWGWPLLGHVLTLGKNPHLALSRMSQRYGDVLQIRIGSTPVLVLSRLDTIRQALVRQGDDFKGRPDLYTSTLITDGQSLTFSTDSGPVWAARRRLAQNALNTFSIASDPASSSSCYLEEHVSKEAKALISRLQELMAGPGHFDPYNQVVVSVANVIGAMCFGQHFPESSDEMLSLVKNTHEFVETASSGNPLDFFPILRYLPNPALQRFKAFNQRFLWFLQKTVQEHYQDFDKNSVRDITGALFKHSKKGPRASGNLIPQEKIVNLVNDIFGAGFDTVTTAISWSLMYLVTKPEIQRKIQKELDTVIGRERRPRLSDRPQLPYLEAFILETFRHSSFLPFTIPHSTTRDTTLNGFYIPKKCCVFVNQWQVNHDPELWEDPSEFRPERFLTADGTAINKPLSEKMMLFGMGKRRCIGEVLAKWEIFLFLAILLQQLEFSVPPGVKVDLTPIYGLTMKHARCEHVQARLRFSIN
As to the kind of experiment: Inhibition of CYP1A2 (unknown origin) at 3 uM relative to control. The class given is ADME.

Data set [6] deals with Nicotinamide phosphoribosyltransferase (Mus musculus) (UniProt Q99KQ4). Nature of the data set: Inhibition of NAMPT in neonatal mouse superior cervical ganglion explant assessed as delay in degeneration of injured axons at 1 uM treated <10 mins prior to axon transection meaured at 8 hrs by phase contrast microscopy. In kind it is tissue-based.
Sequence of Nicotinamide phosphoribosyltransferase (Mus musculus) (Q99KQ4 whole entry, looked up): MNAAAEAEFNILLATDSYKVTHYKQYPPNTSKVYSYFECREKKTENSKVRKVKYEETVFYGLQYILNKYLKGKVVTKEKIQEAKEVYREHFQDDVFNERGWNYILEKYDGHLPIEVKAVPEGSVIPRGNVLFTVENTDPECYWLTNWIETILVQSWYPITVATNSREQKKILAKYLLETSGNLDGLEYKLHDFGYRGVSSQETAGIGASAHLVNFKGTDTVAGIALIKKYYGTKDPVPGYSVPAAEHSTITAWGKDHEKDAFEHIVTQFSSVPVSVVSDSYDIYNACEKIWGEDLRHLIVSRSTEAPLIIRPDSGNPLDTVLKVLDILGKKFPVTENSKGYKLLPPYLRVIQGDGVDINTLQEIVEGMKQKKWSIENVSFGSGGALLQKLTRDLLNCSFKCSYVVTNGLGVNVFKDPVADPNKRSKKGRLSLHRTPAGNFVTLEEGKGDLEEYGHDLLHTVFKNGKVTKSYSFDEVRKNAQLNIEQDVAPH
A further data set deals with CYP3A4 (Homo sapiens, UniProt P08684). As to the kind of experiment: Inhibition of CYP3A4 (unknown origin) at 3 uM relative to control. The class given is ADME.
Sequence of CYP3A4 (P08684 whole entry): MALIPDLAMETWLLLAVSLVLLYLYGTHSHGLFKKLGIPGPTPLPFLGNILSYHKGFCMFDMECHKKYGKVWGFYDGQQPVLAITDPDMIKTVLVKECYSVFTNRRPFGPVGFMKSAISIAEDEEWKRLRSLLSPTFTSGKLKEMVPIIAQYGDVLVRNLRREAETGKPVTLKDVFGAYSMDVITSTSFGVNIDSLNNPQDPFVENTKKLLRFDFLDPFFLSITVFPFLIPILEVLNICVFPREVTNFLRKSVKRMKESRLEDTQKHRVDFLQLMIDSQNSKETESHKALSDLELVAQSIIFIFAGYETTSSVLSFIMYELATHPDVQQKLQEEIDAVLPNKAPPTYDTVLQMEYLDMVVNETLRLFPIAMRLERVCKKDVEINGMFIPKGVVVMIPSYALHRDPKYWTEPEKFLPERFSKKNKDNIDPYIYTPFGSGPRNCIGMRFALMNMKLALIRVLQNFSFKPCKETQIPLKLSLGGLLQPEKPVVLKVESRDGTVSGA
Data set [7] can be described thus: Metabolic stability in mouse liver microsomes assessed as parent compound remaining at 5 uM measured at 30 mins in absence of NADPH. The class given is ADME. Conditions: read-out: Stability.
A short description of data set [8]: Permeability across human Caco2 cells assessed as drug recovery. The class given is ADME, cell-based. Conditions: Caco-2, read-out: Drug recovery.
Data set [9] has as its target Nicotinamide phosphoribosyltransferase (Mus musculus) (UniProt Q99KQ4). Conditions: Superior cervical ganglion, 100 nM.
Description: Inhibition of NAMPT in neonatal mouse superior cervical ganglion explant assessed as delay in degeneration of injured axons at 100 nM treated <10 mins prior to axon transection meaured at 8 to 24 hrs by phase contrast microscopy

SMILES strings stand for the structures. The source made the active and inactive calls. The calls are words filed in the database; no cut-off is given here.

Sequence of Nicotinamide phosphoribosyltransferase (P43490 whole entry): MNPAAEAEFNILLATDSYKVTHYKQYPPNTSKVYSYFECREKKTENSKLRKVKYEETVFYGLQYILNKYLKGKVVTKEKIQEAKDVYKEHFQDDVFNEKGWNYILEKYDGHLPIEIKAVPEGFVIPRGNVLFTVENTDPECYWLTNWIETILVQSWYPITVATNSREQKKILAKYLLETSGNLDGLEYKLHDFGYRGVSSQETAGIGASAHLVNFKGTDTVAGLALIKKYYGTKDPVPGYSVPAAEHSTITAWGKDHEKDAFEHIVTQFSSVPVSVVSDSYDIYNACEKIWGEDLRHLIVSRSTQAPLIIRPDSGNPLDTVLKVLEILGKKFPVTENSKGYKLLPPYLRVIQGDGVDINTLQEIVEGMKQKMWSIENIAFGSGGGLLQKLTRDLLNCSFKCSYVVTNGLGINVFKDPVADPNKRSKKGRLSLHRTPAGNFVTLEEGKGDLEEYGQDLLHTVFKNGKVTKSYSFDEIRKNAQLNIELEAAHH
Sequence of CYP2D6 (P10635 whole entry): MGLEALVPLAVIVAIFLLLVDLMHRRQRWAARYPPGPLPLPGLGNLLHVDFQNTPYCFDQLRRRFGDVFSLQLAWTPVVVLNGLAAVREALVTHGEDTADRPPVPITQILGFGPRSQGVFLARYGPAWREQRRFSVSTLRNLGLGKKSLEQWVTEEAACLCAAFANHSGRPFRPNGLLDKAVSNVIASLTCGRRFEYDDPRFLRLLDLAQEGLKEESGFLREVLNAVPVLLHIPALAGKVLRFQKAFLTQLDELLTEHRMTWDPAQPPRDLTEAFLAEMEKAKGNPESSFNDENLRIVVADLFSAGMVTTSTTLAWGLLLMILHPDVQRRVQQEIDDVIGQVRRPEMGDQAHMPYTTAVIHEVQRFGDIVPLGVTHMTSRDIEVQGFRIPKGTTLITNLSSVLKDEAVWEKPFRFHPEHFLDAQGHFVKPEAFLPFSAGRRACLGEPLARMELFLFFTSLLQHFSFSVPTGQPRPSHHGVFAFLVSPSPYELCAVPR
Sequence of CYP2C9 (P11712 whole entry): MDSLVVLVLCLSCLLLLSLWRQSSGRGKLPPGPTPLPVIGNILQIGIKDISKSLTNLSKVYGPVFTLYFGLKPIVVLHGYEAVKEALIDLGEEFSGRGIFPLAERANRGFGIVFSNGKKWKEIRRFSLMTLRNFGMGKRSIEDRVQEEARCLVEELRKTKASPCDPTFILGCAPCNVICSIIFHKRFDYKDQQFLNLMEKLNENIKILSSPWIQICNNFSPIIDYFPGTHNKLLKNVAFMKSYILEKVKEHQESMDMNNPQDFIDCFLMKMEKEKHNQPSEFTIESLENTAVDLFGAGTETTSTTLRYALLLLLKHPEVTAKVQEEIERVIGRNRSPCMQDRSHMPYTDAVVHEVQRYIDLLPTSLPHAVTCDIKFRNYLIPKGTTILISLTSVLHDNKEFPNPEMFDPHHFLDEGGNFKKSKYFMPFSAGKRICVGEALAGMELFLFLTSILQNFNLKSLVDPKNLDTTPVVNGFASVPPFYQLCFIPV

What is called IC50 is the point on the concentration scale where inhibition reaches its midpoint. With `O=C(/C=C/c1cccnc1)Nc1ccc(-c2nnc3n2CCCCC3)cc1`, the IC50 in [1] amounted to 670 nM.

A word on the inhibition: it is the percentage by which the read-out fell short of the control. For `O=C(c1cc(-c2cccnc2)[nH]n1)N1CCN(C(c2ccccc2)c2ccccc2)CC1`, the remaining at 0.5 h, 5 µM was determined as 19% in data set [2], 63% in data set [4], 104% in data set [5] and 96% in data set [7]. Moreover, the fraction unbound in [3] is 0.004. The inhibition at 3 µM on CYP2D6 worked out at 3%; against CYP2C9, 43%; against CYP1A2, 23%; against CYP3A4, 20%. The inhibition entry in data set [6] was “Active”. In addition, the recovery in data set [8] was < 70%. The half-inhibitory concentration (IC50) in data set [1] is 243 nM.

With `O=C(COc1ccc(S(=O)(=O)Nc2ccc(Cl)cc2)cc1)NCc1cccnc1`, the IC50 in [1] came out at 1900 nM.

Take `CCCCc1ccc(NC(=O)C2CC2c2cccnc2)cc1` (stereo not drawn): the remaining at 0.5 h, 5 µM was 43% in data set [2], 7% in data set [4], 96% in data set [5] and 87% in data set [7]. Further, the fraction unbound in data set [3] is 0.008. Besides, the inhibition at 3 µM against CYP2D6 is 1%; against CYP2C9, 31%; on CYP1A2 it was 22%; at CYP3A4, 63%. For the same compound, in data set [8], the recovery was < 70%. Moreover, the IC50 in data set [1] was found to be 41.8 nM.

For the compound `O=C(/C=C/c1cccnc1)NCCCCC1CCN(C(=O)c2ccccc2)CC1`, in data set [9], the inhibition entry is “Active”.

In the case of `O=C(NCCOc1ccc2ccccc2c1)NCc1cccnc1`, the IC50 in [1] was found to be 5000 nM.

`O=C(NCc1cccnc1)c1cc2n(n1)CCN(Cc1ccc(Cl)c(Cl)c1)C2=O`: the IC50 in data set [1] is 320 nM.

For the compound `O=C(/C=C/c1cccnc1)N1CCN(Cc2ccc(OC(F)(F)F)cc2)CC1`, the IC50 in data set [1] stood at 780 nM.

As for `CC1(C)Cc2cccc(OCCNC(=O)/C=C/c3cccnc3)c2O1`, the half-maximal inhibitory concentration (IC50) in [1] is 940 nM.

`O=C(/C=C/c1cccnc1)Nc1ccc(C(=O)NCC(F)(F)F)cc1`: in data set [1], the IC50 was 220 nM.

Consider `O=C(c1cc(-c2cccnc2)n[nH]1)N1CCN(C(=O)c2cc3ccccc3[nH]2)CC1`, for which the half-inhibitory concentration (IC50) in data set [1] came out at 3800 nM.

On to `O=C(/C=C/c1cccnc1)N1CCN(Cc2csc(-c3ccc(F)cc3)n2)CC1`, for which the IC50 in [1] worked out at 3200 nM.

(Values after ChEMBL document CHEMBL3797081, “Application of virtual screening to the discovery of novel nicotinamide phosphoribosyltransferase (NAMPT) inhibitors with potential for the treatment of cancer and axonopathies” (Bioorg Med Chem Lett, 2016).)
